Test results from patent US20150218172A1, “Pyrrolo[2,3-D]Pyrimidine Tropomyosin-Related Kinase Inhibitors” (PFIZER LIMITED, priority 2012, published 2015).

Target: T1, TrkA (Homo sapiens, UniProt P04629)
T1 construct: aa 441-796; His; purchased Invitrogen PV3144
Assay: Isolated TRK enzyme assay (HTRF KinEASE-TK kit), PV3144 TrkA enzyme assay
Assay type: biochemical
Conditions: PV3144 TrkA enzyme assay, recombinant His-tagged cytoplasmic domain aa 441-796, 4 nM enzyme, 40 uM ATP; arithmetic mean where more than one reading; read-out: Trka enzyme (IC50)
In short: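 HTRF KinEASE tyrosine-phosphorylation readout (665/620 nm ratio) on a 1 uM biotinylated substrate after reaction with preactivated His-tagged TrkA cytoplasmic domain plus ATP and MgCl2/DTT buffer. Compound preincubated 20 min with enzyme; IC50 from log-concentration sigmoid curve, averaged where repeated.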

T1 sequence (P04629 441-796): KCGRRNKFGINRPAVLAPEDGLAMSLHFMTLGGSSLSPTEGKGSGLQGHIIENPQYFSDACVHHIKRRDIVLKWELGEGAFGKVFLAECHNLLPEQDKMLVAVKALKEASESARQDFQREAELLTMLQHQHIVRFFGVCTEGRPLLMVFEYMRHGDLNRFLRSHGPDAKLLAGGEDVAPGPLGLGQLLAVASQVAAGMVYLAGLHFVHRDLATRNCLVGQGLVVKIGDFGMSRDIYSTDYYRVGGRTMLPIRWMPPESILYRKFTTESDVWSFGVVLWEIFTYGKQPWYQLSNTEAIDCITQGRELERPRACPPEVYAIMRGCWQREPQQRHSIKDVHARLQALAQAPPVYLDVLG

Q: How did the IC50 turn out when `CC(C)(CO)n1cc(C(=O)c2cc(NC(=O)Cn3cc(C(F)(F)F)nn3)ccn2)c2cnc(N)nc21` [Example 53, N-(2-{[2-amino-7-(1-hydroxy-2-methylpropan-2-yl)-7H-pyrrolo[2,3-d]pyrimidin-5-yl]carbonyl}pyridin-4-yl)-2-[4-(trifluoromethyl)-1H-1,2,3-triazol-1-yl]acetamide] was run?
A: 216 nM

Q: With `CC(C)(CO)n1cc(C(=O)c2cc(NC(=O)Cn3ccc(C4CC4)n3)ccn2)c2cncnc21` [Example 61, 2-(3-cyclopropyl-1H-pyrazol-1-yl)-N-(2-{[7-(1-hydroxy-2-methylpropan-2-yl)-7H-pyrrolo[2,3-d]pyrimidin-5-yl]carbonyl}pyridin-4-yl)acetamide] as the compound, how does the IC50 read?
A: 25.4 nM

Q: How did the IC50 turn out when `C[C@@H](CO)n1cc(C(=O)c2cc(NC(=O)Cc3cccc(C(F)(F)F)c3)ccn2)c2cncnc21` [Example 24, N-[2-({7-[(2S)-1-hydroxypropan-2-yl]-7H-pyrrolo[2,3-d]pyrimidin-5-yl}carbonyl)pyridin-4-yl]-2-[3-(trifluoromethyl)phenyl]acetamide] was run?
A: 59.8 nM

Q: `O=C(Cn1cc(C(F)(F)F)nn1)Nc1cc(C(=O)c2cn(CCO)c3ncncc23)ccn1` [Example 137, N-(4-{[7-(2-hydroxyethyl)-7H-pyrrolo[2,3-d]pyrimidin-5-yl]carbonyl}pyridin-2-yl)-2-[4-(trifluoromethyl)-1H-1,2,3-triazol-1-yl]acetamide] was tested. Which IC50 did it give?
A: 188 nM

Q: Which IC50 does the source give for `CC(C)n1cc(C(=O)c2ccnc(NC(=O)Cn3cccn3)c2)c2cncnc21` [Example 158, N-(4-{[7-(propan-2-yl)-7H-pyrrolo[2,3-d]pyrimidin-5-yl]carbonyl}pyridin-2-yl)-2-(1H-pyrazol-1-yl)acetamide] here?
A: 1350 nM

Q: Which IC50 does the source give for `CC(C)(C)n1cc(C(=O)c2ccnc(NC(=O)Cc3ccc(C#N)cc3)c2)c2cncnc21` [Example 173, N-{4-[(7-tert-butyl-7H-pyrrolo[2,3-d]pyrimidin-5-yl)carbonyl}pyridin-2-yl]-2-(4-cyanophenyl)acetamide] here?
A: 25.4 nM

Q: `CC(C)(CO)n1cc(C(=O)c2cc(NC(=O)Cc3ccc(Cl)cc3)ccn2)c2cnc(N)nc21` [Example 48, N-{2-[2-Amino-7-(2-hydroxy-1,1-dimethyl-ethyl)-7H-pyrrolo[2,3-d]pyrimidine-5-carbonyl}-pyridin-4-yl]-2-(4-chloro-phenyl)-acetamide] was tested. Which IC50 did it give?
A: 7.29 nM

Q: With `O=C(Cc1ccc(OC(F)(F)F)cc1)Nc1ccnc(C(=O)c2cn(C(CO)CO)c3ncncc23)c1` [Example 98, N-(2-{[7-(1,3-dihydroxypropan-2-yl)-7H-pyrrolo[2,3-d]pyrimidin-5-yl]carbonyl}pyridin-4-yl)-2-[4-(trifluoromethoxy)phenyl]acetamide] as the compound, how does the IC50 read?
A: 1500 nM

Q: How did the IC50 turn out when `CC(CO)n1cc(C(=O)c2ccnc(NC(=O)Cc3ccc(C#N)cc3)c2)c2cncnc21` (single isomer, unassigned) [Example 34, 2-(4-cyanophenyl)-N-(4-{[7-(1-hydroxypropan-2-yl)-7H-pyrrolo[2,3-d]pyrimidin-5-yl]carbonyl}pyridin-2-yl)acetamide] was run?
A: 332 nM

Q: With `Cc1cc(C)n(CC(=O)Nc2cc(C(=O)c3cn(C(C)(C)C)c4ncncc34)ccn2)n1` [Example 174, N-{4-[(7-tert-butyl-7H-pyrrolo[2,3-d]pyrimidin-5-yl)carbonyl}pyridin-2-yl]-2-(3,5-dimethyl-1H-pyrazol-1-yl)acetamide] as the compound, how does the IC50 read?
A: 27.3 nM

Q: How did the IC50 turn out when `O=C(Cc1ccc(F)cc1F)Nc1cc(C(=O)c2cn(CCO)c3ncncc23)ccn1` [Example 140, 2-(2,4-difluorophenyl)-N-(4-{[7-(2-hydroxyethyl)-7H-pyrrolo[2,3-d]pyrimidin-5-yl]carbonyl}pyridin-2-yl)acetamide] was run?
A: 223 nM

Q: `Cc1cc(C(F)(F)F)nn1CC(=O)Nc1cc(C(=O)c2cn(C(C)(C)CO)c3nc(N)ncc23)ccc1C#N` [Example 10, N-(5-{[2-amino-7-(1-hydroxy-2-methylpropan-2-yl)-7H-pyrrolo[2,3-d]pyrimidin-5-yl]carbonyl}-2-cyanophenyl)-2-[5-methyl-3-(trifluoromethyl)-1H-pyrazol-1-yl]acetamide] was tested. Which IC50 did it give?
A: 13.2 nM

Q: With `CC(CO)(CO)n1cc(C(=O)c2cc(NC(=O)Cn3ccc(C(F)(F)F)n3)ccn2)c2cncnc21` [Example 105, N-(2-{[7-(1,3-dihydroxy-2-methylpropan-2-yl)-7H-pyrrolo[2,3-d]pyrimidin-5-yl]carbonyl}pyridin-4-yl)-2-[3-(trifluoromethyl)-1H-pyrazol-1-yl]acetamide] as the compound, how does the IC50 read?
A: 72.7 nM

Q: `COc1ccc(CC(=O)Nc2cc(C(=O)c3cn(C(C)C)c4ncncc34)ccn2)cc1` [Example 161, 2-(4-methoxyphenyl)-N-(4-{[7-(propan-2-yl)-7H-pyrrolo[2,3-d]pyrimidin-5-yl]carbonyl}pyridin-2-yl)acetamide] was tested. Which IC50 did it give?
A: 60.8 nM

Q: How did the IC50 turn out when `CC(C)c1cn(CC(=O)Nc2cc(C(=O)c3cn(CCO)c4ncncc34)ccn2)nn1` [Example 129, N-(4-{[7-(2-hydroxyethyl)-7H-pyrrolo[2,3-d]pyrimidin-5-yl]carbonyl}pyridin-2-yl)-2-[4-(propan-2-yl)-1H-1,2,3-triazol-1-yl]acetamide] was run?
A: 201 nM

Q: For `CC1(n2cc(C(=O)c3cc(NC(=O)Cc4ccc(C(F)(F)F)cc4)ccn3)c3cncnc32)COC1` [Example 167, N-(2-{[7-(3-methyloxetan-3-yl)-7H-pyrrolo[2,3-d]pyrimidin-5-yl]carbonyl}pyridin-4-yl)-2-[4-(trifluoromethyl)phenyl]acetamide], which IC50 is on record?
A: 72.9 nM

Q: `CC(C)(C)n1cc(C(=O)c2cc(NC(=O)Cc3ccc(F)cc3)ccn2)c2cncnc21` [Example 43, N-{2-[(7-tert-butyl-7H-pyrrolo[2,3-d]pyrimidin-5-yl)carbonyl]pyridin-4-yl}-2-(4-fluorophenyl)acetamide] was tested. Which IC50 did it give?
A: 15.7 nM

Q: With `CC(C)(CO)n1cc(C(=O)c2cc(NC(=O)Cc3ccc(C(F)(F)F)cc3)ccn2)c2cncnc21` [Example 55, N-(2-{[7-(1-hydroxy-2-methylpropan-2-yl)-7H-pyrrolo[2,3-d]pyrimidin-5-yl]carbonyl}pyridin-4-yl)-2-[4-(trifluoromethyl)phenyl]acetamide] as the compound, how does the IC50 read?
A: 12.9 nM

Q: How did the IC50 turn out when `CC(C)n1cc(C(=O)c2ccnc(NC(=O)Cc3ccc(F)cc3)c2)c2cncnc21` [Example 153, 2-(4-fluorophenyl)-N-(4-{[7-(propan-2-yl)-7H-pyrrolo[2,3-d]pyrimidin-5-yl]carbonyl}pyridin-2-yl)acetamide] was run?
A: 42 nM

Q: `CC(C)n1cc(C(=O)c2ccnc(NC(=O)Cc3ccc(C(F)(F)F)cc3)c2)c2cncnc21` [Example 122, N-(4-{[7-(propan-2-yl)-7H-pyrrolo[2,3-d]pyrimidin-5-yl]carbonyl}pyridin-2-yl)-2-[4-(trifluoromethyl)phenyl]acetamide] was tested. Which IC50 did it give?
A: 4.24 nM

Q: With `CC(C)n1cc(C(=O)c2cc(NC(=O)Cn3cc(C(F)(F)F)nn3)ccn2)c2cncnc21` [Example 79, N-(2-{[7-(propan-2-yl)-7H-pyrrolo[2,3-d]pyrimidin-5-yl]carbonyl}pyridin-4-yl)-2-[4-(trifluoromethyl)-1H-1,2,3-triazol-1-yl]acetamide] as the compound, how does the IC50 read?
A: 131 nM

Q: Which IC50 does the source give for `CC(C)n1cc(C(=O)c2ccnc(NC(=O)Cc3cccc(Cl)c3)c2)c2cncnc21` [Example 155, 2-(3-chlorophenyl)-N-(4-{[7-(propan-2-yl)-7H-pyrrolo[2,3-d]pyrimidin-5-yl]carbonyl}pyridin-2-yl)acetamide] here?
A: 14.3 nM

Q: How did the IC50 turn out when `O=C(Cc1ccc(F)cc1)Nc1cc(C(=O)c2cn(CCO)c3ncncc23)ccn1` [Example 145, 2-(4-fluorophenyl)-N-(4-{[7-(2-hydroxyethyl)-7H-pyrrolo[2,3-d]pyrimidin-5-yl]carbonyl}pyridin-2-yl)acetamide] was run?
A: 484 nM

Q: Which IC50 does the source give for `CC(C)n1cc(C(=O)c2cc(NC(=O)Cc3cccc(S(C)(=O)=O)c3)ccn2)c2cnc(N)nc21` [Example 88, N-(2-{[2-amino-7-(propan-2-yl)-7H-pyrrolo[2,3-d]pyrimidin-5-yl]carbonyl}pyridin-4-yl)-2-[3-(methylsulfonyl)phenyl]acetamide] here?
A: 75.9 nM

Q: For `C[C@@H](CO)n1cc(C(=O)c2cc(NC(=O)Cc3ccc(F)cn3)ccn2)c2cncnc21` [Example 18, 2-(5-fluoropyridin-2-yl)-N-[2-({7-[(2S)-1-hydroxypropan-2-yl]-7H-pyrrolo[2,3-d]pyrimidin-5-yl}carbonyl)pyridin-4-yl]acetamide], which IC50 is on record?
A: 202 nM

Q: With `Cc1cc(C)n(CC(=O)Nc2cc(C(=O)c3cn(CC4(O)CC4)c4ncncc34)ccn2)n1` [Example 177, 2-(3,5-Dimethyl-1H-pyrazol-1-yl)-N-[4-({7-[(1-hydroxycyclopropyl)methyl]-7H-pyrrolo[2,3-d]pyrimidin-5-yl}carbonyl)pyridin-2-yl]acetamide] as the compound, how does the IC50 read?
A: 617 nM

Q: For `CC1(n2cc(C(=O)c3cc(NC(=O)Cc4ccc(Cl)cn4)ccn3)c3cncnc32)COC1` [Example 168, 2-(5-chloropyridin-2-yl)-N-(2-{[7-(3-methyloxetan-3-yl)-7H-pyrrolo[2,3-d]pyrimidin-5-yl]carbonyl}pyridin-4-yl)acetamide], which IC50 is on record?
A: 155 nM

Q: Which IC50 does the source give for `CC(C)(CO)n1cc(C(=O)c2cc(NC(=O)Cc3cccc(C(F)(F)F)c3)ccn2)c2cncnc21` [Example 56, N-(2-{[7-(1-hydroxy-2-methylpropan-2-yl)-7H-pyrrolo[2,3-d]pyrimidin-5-yl]carbonyl}pyridin-4-yl)-2-[3-(trifluoromethyl)phenyl]acetamide] here?
A: 6.56 nM

Q: With `CC(C)(CO)n1cc(C(=O)c2ccc(C#N)c(NC(=O)Cn3ccc(C(F)(F)F)n3)c2)c2cnc(N)nc21` [Example 11, N-(5-{[2-amino-7-(1-hydroxy-2-methylpropan-2-yl)-7H-pyrrolo[2,3-d]pyrimidin-5-yl]carbonyl}-2-cyanophenyl)-2-[3-(trifluoromethyl)-1H-pyrazol-1-yl]acetamide] as the compound, how does the IC50 read?
A: 11.5 nM

Q: Which IC50 does the source give for `CC(CO)n1cc(C(=O)c2ccnc(NC(=O)Cc3ccc(C#N)cc3)c2)c2cncnc21` (single isomer, unassigned) [Example 33, 2-(4-cyanophenyl)-N-(4-{[7-(1-hydroxypropan-2-yl)-7H-pyrrolo[2,3-d]pyrimidin-5-yl]carbonyl}pyridin-2-yl)acetamide] here?
A: 2560 nM
